From the supplement of paper PMC10307832

How the values were obtained:
Assay in all cases: relative viability (nuclei count vs DMSO), 5 days (fraction); higher = more cells survive
[1] = compound: C1CSC2=C(C(=O)N1)SC3=C2C=C(C=C3)O [kb NB 142-70] + Nc1ncn([C@H]2C[C@H](O)[C@@H](CO)O2)c(=O)n1 [Decitabine] (partner 2 µM)
Summary of the method: (§1)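 After 5 days of treatment, lung cancer cells in 1536-well plates were fixed and stained in a single step (final 0.05% Triton X-100, 1% formaldehyde, 1 ug/ml Hoechst) and their nuclei counted on 4× images. Treatment had been applied by pin tool the day after seeding as one drug alone or as a fixed anchor-drug dose with five library-drug doses (not always all listed) in √10 steps. Relative viability is the nuclei count of treated wells divided by that of vehicle wells, and values are medians of duplicate plates.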

[2] = compound: NCC(=O)Nc1ccc(-n2nc(C(F)(F)F)cc2-c2ccc3c(ccc4ccccc43)c2)cc1 + COc1cccc2cc(-c3nc([C@H]4CC[C@H](C(=O)O)CC4)n4ncnc(N)c34)[nH]c12 [OSI-027] (partner 0.5 µM)
Summary of the method: as §1

[3] = compound: NCC(=O)Nc1ccc(-n2nc(C(F)(F)F)cc2-c2ccc3c(ccc4ccccc43)c2)cc1 + C[C@@H](Oc1cc(-c2cnn(C3CCNCC3)c2)cnc1N)c1c(Cl)ccc(F)c1Cl [Crizotinib] (partner 1 µM)
Summary of the method: as §1

[4] = compound: NCC(=O)Nc1ccc(-n2nc(C(F)(F)F)cc2-c2ccc3c(ccc4ccccc43)c2)cc1 + O=C(c1cc(Cc2n[nH]c(=O)c3ccccc23)ccc1F)N1CCN(C(=O)C2CC2)CC1 [Olaparib] (partner 8 µM)
Summary of the method: as §1

Cell Line	relative viability ([1]; first compound 0.1 µM)	relative viability ([1]; first compound 1 µM)	relative viability ([1]; first compound 3.162 µM)	relative viability ([2]; first compound 0.02 µM)	relative viability ([2]; first compound 0.06325 µM)	relative viability ([2]; first compound 0.2 µM)	relative viability ([2]; first compound 0.6325 µM)	relative viability ([2]; first compound 2 µM)	relative viability ([3]; first compound 0.02 µM)	relative viability ([3]; first compound 0.06325 µM)	relative viability ([3]; first compound 0.2 µM)	relative viability ([3]; first compound 0.6325 µM)	relative viability ([3]; first compound 2 µM)	relative viability ([4]; first compound 0.02 µM)	relative viability ([4]; first compound 0.06325 µM)	relative viability ([4]; first compound 0.2 µM)	relative viability ([4]; first compound 0.6325 µM)	relative viability ([4]; first compound 2 µM)
HCC-78	0.683	0.727	0.677	0.402	0.375	0.329	0.347	0.41	0.361	0.363	0.346	0.337	0.348	0.9	0.837	1.02	0.868	0.814
NCI-H322M	0.675	0.72	0.616	0.532	0.536	0.556	0.546	0.566	1.06	0.835	0.962	0.909	0.922	0.865	0.759	0.782	0.802	0.794
NCI-H3122	0.487	0.371	0.419	1.04	0.941	0.899	0.98	0.876	0.275	0.287	0.266	0.289	0.279	0.675	0.637	0.633	0.693	0.558
COR-L23	0.409	0.465	0.246	0.765	0.894	0.836	0.693	0.755	0.825	0.638	0.823	0.703	0.631	0.368	0.368	0.352	0.393	0.366
NCI-H2087	0.277	0.245	0.189	0.543	0.612	0.546	0.483	0.626	0.779	0.866	0.889	0.906	0.885	0.583	0.525	0.592	0.67	0.634
LC-2-ad	0.798	0.769	0.772	0.755	0.911	0.647	0.75	1.05	0.463	0.543	0.433	0.47	0.389	0.676	0.801	0.728	0.719	0.698
NCI-H1915	0.263	0.246	0.23	0.463	0.652	0.639	0.617	0.63	0.864	0.873	0.871	0.83	0.898	0.256	0.287	0.25	0.255	0.257
NCI-H2023	0.218	0.213	0.149	0.381	0.422	0.428	0.422	0.351	0.737	0.751	0.619	0.703	0.702	0.604	0.543	0.516	0.401	0.464
COR-L 105	0.68	0.576	0.589	0.593	0.626	0.623	0.776	0.6	0.873	0.765	0.803	0.845	1.06	0.696	0.772	0.75	0.766	0.638
